Results published in patent US20090220537A1, “VACCINE DELIVERY SYSTEM” (THE UNIVERSITY OF QUEENSLAND, priority 2005, published 2009).

Experiments:
[1] = test system: E7-expressing TC-1 tumour cells; assay type: in vivo; conditions: H-2b mice immunised twice, 2×10^5 TC-1 cells two weeks after second immunisation; within 15 days; FIG. 6C
RSV = assay type: in vivo, mice

Sequence	Mice that developed tumour [1]	Mean RSV load per ½-lung in mice with detectable infection (RSV; BALB/c mice challenged intranasally with 8×10^5 pfu RSV, lungs 4 days later, immunofocus assay)	Number of mice (%) with detectable RSV in lungs (RSV; BALB/c mice, 5 per group, challenged intranasally with 8×10^5 pfu RSV 3 weeks after immunisation, lungs 4 days later, limit of detection 5×10^2 pfu/lung, listed as M15 peptide+adjuvant)	RSV-specific immunostaining of lung cryosections (RSV; indirect immunofluorescence, 4 days after challenge, FIG. 5)
RAHYNIVTF [RAH peptide+adjuvant]	level of protection was consistent with that observed			
ESYIGSINNITKQSA [M215 peptide + adjuvant]		1.0 × 10^3 pfu	One of five	reduced staining
